Results on one compound are retold here after ChEMBL document CHEMBL5113558, “Discovery of Potent PROTACs for the Potential Treatment of Leukemia” (ACS Med Chem Lett, 2022).

This test addresses Protein cereblon/Tyrosine-protein kinase JAK2 (Homo sapiens, UniProt O60674+Q96SW2). Nature of the test: Protac activity at E3 ubiquitin ligase/JAK2 in human MHH-CALL-4 cells assessed as E3 ubiquitin ligase mediated JAK2 degradation incubated for 32 hrs by immunoblotting analysis. The test is classed as cell-based, MHHCALL4. For orientation: Immunoblotting shows a protein as a band on a membrane.

Broadly, the EC50 is the concentration at which the effect is half-maximal.

Chain of Protein cereblon/Tyrosine-protein kinase JAK2 (O60674 whole entry): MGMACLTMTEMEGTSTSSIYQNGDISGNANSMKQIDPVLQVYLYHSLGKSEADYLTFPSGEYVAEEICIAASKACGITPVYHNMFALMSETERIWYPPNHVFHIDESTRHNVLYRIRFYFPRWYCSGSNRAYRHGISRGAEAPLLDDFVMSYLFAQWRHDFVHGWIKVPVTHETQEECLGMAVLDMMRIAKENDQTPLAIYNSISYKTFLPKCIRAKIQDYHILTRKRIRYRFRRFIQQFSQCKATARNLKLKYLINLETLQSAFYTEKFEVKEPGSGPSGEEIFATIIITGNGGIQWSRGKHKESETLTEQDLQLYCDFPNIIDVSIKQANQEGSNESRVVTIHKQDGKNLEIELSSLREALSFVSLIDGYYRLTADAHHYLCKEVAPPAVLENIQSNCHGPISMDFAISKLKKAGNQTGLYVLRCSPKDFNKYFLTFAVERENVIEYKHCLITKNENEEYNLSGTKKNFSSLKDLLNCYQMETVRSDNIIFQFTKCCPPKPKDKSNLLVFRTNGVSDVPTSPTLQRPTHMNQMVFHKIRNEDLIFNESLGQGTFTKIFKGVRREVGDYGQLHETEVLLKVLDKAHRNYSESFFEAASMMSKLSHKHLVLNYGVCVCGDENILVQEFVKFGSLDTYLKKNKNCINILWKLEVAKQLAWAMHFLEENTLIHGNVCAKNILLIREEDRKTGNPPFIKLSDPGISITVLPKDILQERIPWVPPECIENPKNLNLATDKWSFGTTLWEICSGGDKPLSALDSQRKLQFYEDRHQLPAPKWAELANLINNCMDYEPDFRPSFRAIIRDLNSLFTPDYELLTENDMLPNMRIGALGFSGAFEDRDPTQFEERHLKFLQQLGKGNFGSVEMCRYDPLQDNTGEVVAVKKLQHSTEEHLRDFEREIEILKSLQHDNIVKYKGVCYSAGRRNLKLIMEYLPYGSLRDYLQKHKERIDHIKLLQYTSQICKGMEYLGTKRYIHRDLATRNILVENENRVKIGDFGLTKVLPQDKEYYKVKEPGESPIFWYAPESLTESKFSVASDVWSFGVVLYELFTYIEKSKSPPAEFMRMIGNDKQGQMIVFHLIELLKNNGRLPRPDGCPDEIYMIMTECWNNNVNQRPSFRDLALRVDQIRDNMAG
Chain of Protein cereblon/Tyrosine-protein kinase JAK2 (Q96SW2 whole entry): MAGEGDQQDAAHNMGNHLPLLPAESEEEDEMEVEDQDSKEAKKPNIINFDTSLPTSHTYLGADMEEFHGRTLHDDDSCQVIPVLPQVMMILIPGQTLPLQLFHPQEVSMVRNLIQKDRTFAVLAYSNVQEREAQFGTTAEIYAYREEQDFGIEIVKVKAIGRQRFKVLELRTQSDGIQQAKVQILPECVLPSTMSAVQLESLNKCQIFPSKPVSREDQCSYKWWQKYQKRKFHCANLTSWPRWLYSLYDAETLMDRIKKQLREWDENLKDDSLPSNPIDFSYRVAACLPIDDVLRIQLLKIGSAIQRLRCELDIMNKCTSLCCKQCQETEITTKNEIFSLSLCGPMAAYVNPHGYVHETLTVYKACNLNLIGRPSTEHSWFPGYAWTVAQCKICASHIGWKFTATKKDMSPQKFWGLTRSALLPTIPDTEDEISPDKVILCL

On to `CCCn1cc(-c2nc(Nc3ccc(C(=O)NCCCCCc4cccc5c4CN(C4CCC(=O)NC4=O)C5=O)cc3)nc3[nH]ccc23)cn1` (stereo unspecified), for which the EC50 was 0.5 nM.
